Reference: ChEMBL document CHEMBL1153316, “Selectivity profiling of DegP substrates and inhibitors” (Bioorg Med Chem, 2009)
Peptide text beside a SMILES is read from it.

Assays:
Parameters in all cases: scale not given: the % may be the effect or the level left
[1] = tested on: Escherichia coli; assay: Inhibition of Escherichia coli degP assessed as specific activity at 0.5 mM
[2] = Inhibition of elastase assessed as specific activity at 0.5 mM
[3] = Inhibition of subtilisin assessed as specific activity at 0.5 mM
[4] = target: Plasminogen (Homo sapiens) (UniProt P00747); assay: Inhibition of plasmin assessed as specific activity at 0.5 mM
Plasminogen (Homo sapiens), sequence (P00747 97-580 limits assumed): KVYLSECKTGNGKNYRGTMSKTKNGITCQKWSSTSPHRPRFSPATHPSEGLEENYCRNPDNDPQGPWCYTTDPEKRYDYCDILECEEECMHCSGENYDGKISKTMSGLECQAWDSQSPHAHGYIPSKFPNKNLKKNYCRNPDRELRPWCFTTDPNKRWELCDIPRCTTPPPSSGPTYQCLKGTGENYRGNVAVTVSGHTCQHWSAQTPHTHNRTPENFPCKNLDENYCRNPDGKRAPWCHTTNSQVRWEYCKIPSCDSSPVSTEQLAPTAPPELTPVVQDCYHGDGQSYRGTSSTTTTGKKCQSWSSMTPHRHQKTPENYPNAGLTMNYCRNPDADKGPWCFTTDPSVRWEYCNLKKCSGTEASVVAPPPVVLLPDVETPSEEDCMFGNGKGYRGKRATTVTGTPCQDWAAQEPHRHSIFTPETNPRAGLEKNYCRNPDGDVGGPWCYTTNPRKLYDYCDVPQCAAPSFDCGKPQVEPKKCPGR
Plasminogen (Homo sapiens), sequence (P00747 581-810 limits assumed): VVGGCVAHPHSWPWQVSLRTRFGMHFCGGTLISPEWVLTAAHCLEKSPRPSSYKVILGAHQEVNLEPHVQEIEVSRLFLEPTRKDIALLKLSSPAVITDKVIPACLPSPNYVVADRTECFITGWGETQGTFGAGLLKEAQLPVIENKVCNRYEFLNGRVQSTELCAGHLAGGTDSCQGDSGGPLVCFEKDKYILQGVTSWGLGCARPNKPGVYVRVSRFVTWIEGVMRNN

[5] = Inhibition of trypsin assessed as specific activity at 0.5 mM
[6] = Inhibition of chymotrypsin assessed as specific activity at 0.5 mM
[7] = target: Prothrombin (Homo sapiens) (UniProt P00734); assay: Inhibition of thrombin assessed as specific activity at 0.5 mM
[8] = Inhibition of kallikrein assessed as specific activity at 0.5 mM

SMILES	Activity [1]	Activity [2]	Activity [3]	Activity [4]	Activity [5]	Activity [6]	Activity [7]	Activity [8]
CSCC[C@H](NC(=O)[C@@H]1CCCN1C(=O)[C@@H](N)CO)C(=O)N[C@@H](Cc1ccccc1)C(=O)N[C@@H](CCCCN)C(=O)NCC(=O)N[C@H](C(=O)Nc1ccc([N+](=O)[O-])cc1)C(C)C (HELM PEPTIDE1{S.P.M.F.K.G.V.[O=[N+]([O-])c1ccc(N[*:1])cc1]}$$$$V2.0)	18%	7%	3%	< 1%	< 1%	< 1%	< 1%	< 1%
CC(C)[C@H](NC(=O)[C@H](CCC(=O)O)NC(=O)[C@H](Cc1ccc(O)cc1)NC(=O)CNC(=O)[C@H](CO)NC(=O)[C@H](CC(=O)O)NC(=O)[C@H](Cc1cnc[nH]1)NC(=O)[C@H](CCCNC(=N)N)NC(=O)[C@H](Cc1ccccc1)NC(=O)[C@H](CCC(=O)O)NC(=O)[C@H](C)NC(=O)[C@H](CC(=O)O)NC(=O)[C@@H](N)CO)C(=O)Nc1ccc([N+](=O)[O-])cc1	< 1%	8%	2%	< 1%	< 1%	< 1%	< 1%	< 1%
CC(C)C[C@H](NC(=O)CNC(=O)[C@H](C)NC(=O)CNC(=O)[C@@H]1CCCN1C(=O)[C@@H](NC(=O)[C@H](CO)NC(=O)[C@H](C)NC(=O)CNC(=O)[C@@H](N)CCCCN)C(C)C)C(=O)N[C@H](C(=O)Nc1ccc([N+](=O)[O-])cc1)C(C)C (HELM PEPTIDE1{K.G.A.S.V.P.G.A.G.L.V.[O=[N+]([O-])c1ccc(N[*:1])cc1]}$$$$V2.0)	< 1%	6%	< 1%	< 1%	< 1%	< 1%	< 1%	< 1%
CSCC[C@H](NC(=O)[C@H](CCSC)NC(=O)[C@@H]1CCCN1C(=O)[C@H](CC(C)C)NC(=O)[C@@H](NC(=O)[C@H](CC(N)=O)NC(=O)[C@H](Cc1ccccc1)NC(=O)[C@@H](N)C(C)C)[C@@H](C)O)C(=O)NCC(=O)N[C@@H](CCCCN)C(=O)N[C@@H](C)C(=O)N[C@@H](CO)C(=O)N1CCC[C@H]1C(=O)N[C@H](C(=O)Nc1ccc([N+](=O)[O-])cc1)C(C)C (HELM PEPTIDE1{V.F.N.T.L.P.M.M.G.K.A.S.P.V.[O=[N+]([O-])c1ccc(N[*:1])cc1]}$$$$V2.0)	32%	89%	< 1%	< 1%	< 1%	8%	< 1%	< 1%
CC(C)[C@H](NC(=O)[C@H](CCCNC(=N)N)NC(=O)CNC(=O)[C@@H](N)CO)C(=O)N[C@H](C(=O)N1CCC[C@H]1C(=O)NCC(=O)N[C@@H](Cc1ccc(O)cc1)C(=O)NCC(=O)N[C@@H](Cc1cnc[nH]1)C(=O)N[C@@H](C)C(=O)Nc1ccc([N+](=O)[O-])cc1)C(C)C (HELM PEPTIDE1{S.G.R.V.V.P.G.Y.G.H.A.[O=[N+]([O-])c1ccc(N[*:1])cc1]}$$$$V2.0)	< 1%	56%	2970%	< 1%	< 1%	< 1%	< 1%	< 1%
CSCC[C@H](NC(=O)[C@H](CCSC)NC(=O)[C@@H]1CCCN1C(=O)[C@H](CC(C)C)NC(=O)[C@@H](NC(=O)[C@H](CC(N)=O)NC(=O)[C@H](Cc1ccccc1)NC(=O)[C@@H](NC(=O)[C@@H]1CCCN1)C(C)C)[C@H](C)O)C(=O)NCC(=O)N[C@@H](CCCCN)C(=O)N[C@@H](C)C(=O)N[C@@H](CO)C(=O)N1CCC[C@H]1C(=O)N[C@H](C(=O)Nc1ccc([N+](=O)[O-])cc1)C(C)C	18%	69%	< 1%	< 1%	1%	3%	< 1%	< 1%
N=C(N)NCCC[C@H](NC(=O)c1ccccc1)C(=O)Nc1ccc([N+](=O)[O-])cc1	< 1%	< 1%	< 1%	< 1%	758%	< 1%	3%	24%
CC(C)[C@H](NC(=O)CNC(=O)CNC(=O)[C@H](CC(=O)O)NC(=O)[C@@H](NC(=O)[C@@H](N)CO)[C@@H](C)O)C(=O)Nc1ccc([N+](=O)[O-])cc1 (HELM PEPTIDE1{S.T.D.G.G.V.[O=[N+]([O-])c1ccc(N[*:1])cc1]}$$$$V2.0)	< 1%	5%	< 1%	2%	< 1%	< 1%	< 1%	< 1%
CC(C)[C@H](NC(=O)[C@@H]1CCCN1C(=O)[C@@H](NC(=O)[C@H](C)NC(=O)CNC(=O)[C@H](CO)NC(=O)CNC(=O)[C@H](CO)NC(=O)[C@H](CC(N)=O)NC(=O)[C@H](CCCCN)NC(=O)CNC(=O)[C@@H](N)CCCCN)[C@@H](C)O)C(=O)Nc1ccc([N+](=O)[O-])cc1 (HELM PEPTIDE1{K.G.K.N.S.G.S.G.A.T.P.V.[O=[N+]([O-])c1ccc(N[*:1])cc1]}$$$$V2.0)	< 1%	74%	34%	< 1%	< 1%	5%	< 1%	< 1%
CSCC[C@H](NC(=O)[C@H](CCSC)NC(=O)[C@@H]1CCCN1)C(=O)NCC(=O)N[C@@H](CCCCN)C(=O)N[C@@H](C)C(=O)N[C@@H](CO)C(=O)N1CCC[C@H]1C(=O)N[C@H](C(=O)Nc1ccc([N+](=O)[O-])cc1)C(C)C (HELM PEPTIDE1{P.M.M.G.K.A.S.P.V.[O=[N+]([O-])c1ccc(N[*:1])cc1]}$$$$V2.0)	1%	96%	< 1%	4%	< 1%	< 1%	< 1%	< 1%
CC(C)C[C@H](NC(=O)CN)C(=O)N[C@@H](C)C(=O)N[C@H](C(=O)NCC(=O)N[C@@H](CC(N)=O)C(=O)N[C@H](C(=O)N[C@@H](CO)C(=O)N[C@H](C(=O)N[C@@H](C)C(=O)N[C@@H](CCC(=O)O)C(=O)N[C@@H](CC(C)C)C(=O)N[C@@H](CCC(N)=O)C(=O)N[C@@H](CC(=O)O)C(=O)N[C@@H](C)C(=O)N[C@H](C(=O)N1CCC[C@H]1C(=O)N[C@@H](C)C(=O)Nc1ccc([N+](=O)[O-])cc1)[C@H](C)O)[C@@H](C)O)C(C)C)[C@@H](C)O	< 1%	24%	1520%	< 1%	< 1%	26%	< 1%	< 1%
